According to the NIST ThermoML archive (doi:10.1021/acs.jced.7b00227):

Columns and labels:
[1] = Molar enthalpy of transition or fusion; conditions: Crystal; DSC

O=Cc1ccc(O)cc1 [4-hydroxybenzaldehyde]
Conditions	vapor or sublimation pressure [kPa]
319.14 K, Crystal, Calculated from knudsen effusion weight loss	7.6e-05
321.31 K, Crystal, Calculated from knudsen effusion weight loss	0.000101
323.2 K, Crystal, Calculated from knudsen effusion weight loss	0.000124
325.16 K, Crystal, Calculated from knudsen effusion weight loss	0.000152
327.35 K, Crystal, Calculated from knudsen effusion weight loss	0.000196
329.21 K, Crystal, Calculated from knudsen effusion weight loss	0.00024
331.15 K, Crystal, Calculated from knudsen effusion weight loss	0.000305
333.36 K, Crystal, Calculated from knudsen effusion weight loss	0.000383
334.88 K, Crystal, Closed cell (Static) method	0.00047
335.2 K, Crystal, Calculated from knudsen effusion weight loss	0.000476
336.84 K, Crystal, Closed cell (Static) method	0.00058
337.14 K, Crystal, Calculated from knudsen effusion weight loss	0.000583
338.82 K, Crystal, Closed cell (Static) method	0.00072
339.28 K, Crystal, Calculated from knudsen effusion weight loss	0.000737
340.78 K, Crystal, Closed cell (Static) method	0.00089
341.2 K, Crystal, Calculated from knudsen effusion weight loss	0.00091
342.79 K, Crystal, Closed cell (Static) method	0.00109
344.73 K, Crystal, Closed cell (Static) method	0.00133
346.72 K, Crystal, Closed cell (Static) method	0.00165
348.7 K, Crystal, Closed cell (Static) method	0.00199
350.66 K, Crystal, Closed cell (Static) method	0.00241
352.65 K, Crystal, Closed cell (Static) method	0.00296
354.62 K, Crystal, Closed cell (Static) method	0.00358
356.58 K, Crystal, Closed cell (Static) method	0.00433
358.56 K, Crystal, Closed cell (Static) method	0.00525
360.53 K, Crystal, Closed cell (Static) method	0.0064
362.52 K, Crystal, Closed cell (Static) method	0.00769
364.51 K, Crystal, Closed cell (Static) method	0.00915
366.46 K, Crystal, Closed cell (Static) method	0.01071
368.43 K, Crystal, Closed cell (Static) method	0.01274
370.43 K, Crystal, Closed cell (Static) method	0.01545
372.39 K, Crystal, Closed cell (Static) method	0.01842
374.32 K, Crystal, Closed cell (Static) method	0.02206
376.26 K, Crystal, Closed cell (Static) method	0.02606
378.18 K, Metastable liquid, Closed cell (Static) method	0.03765
378.32 K, Crystal, Closed cell (Static) method	0.03067
380.28 K, Metastable liquid, Closed cell (Static) method	0.04331
380.29 K, Crystal, Closed cell (Static) method	0.03625
382.26 K, Metastable liquid, Closed cell (Static) method	0.04915
384.18 K, Metastable liquid, Closed cell (Static) method	0.05575
385.95 K, Metastable liquid, Closed cell (Static) method	0.06255
388.15 K, Metastable liquid, Closed cell (Static) method	0.07155
390.14 K, Metastable liquid, Closed cell (Static) method	0.08085
392.11 K, Closed cell (Static) method, Liquid	0.09145
393.98 K, Closed cell (Static) method, Liquid	0.1013
396.02 K, Closed cell (Static) method, Liquid	0.1156
398.08 K, Closed cell (Static) method, Liquid	0.132
399.97 K, Closed cell (Static) method, Liquid	0.1466
402.15 K, Closed cell (Static) method, Liquid	0.1659
403.9 K, Closed cell (Static) method, Liquid	0.184
406.15 K, Closed cell (Static) method, Liquid	0.2077
407.83 K, Closed cell (Static) method, Liquid	0.2288
409.81 K, Closed cell (Static) method, Liquid	0.2537
411.77 K, Closed cell (Static) method, Liquid	0.281
413.71 K, Closed cell (Static) method, Liquid	0.315
415.68 K, Closed cell (Static) method, Liquid	0.3477
417.65 K, Closed cell (Static) method, Liquid	0.3831
419.62 K, Closed cell (Static) method, Liquid	0.4264
421.57 K, Closed cell (Static) method, Liquid	0.4738
423.73 K, Closed cell (Static) method, Liquid	0.5285
425.48 K, Closed cell (Static) method, Liquid	0.5776
427.46 K, Closed cell (Static) method, Liquid	0.6379
429.41 K, Closed cell (Static) method, Liquid	0.7018

Conditions	Normal melting temperature [°C]
Crystal, DTA	117.1

Conditions	Molar enthalpy of transition or fusion [kcal/mol]
[1]	5.16
